Test results reported in PMC11939470, “The Cyclic Antimicrobial Peptide C-LR18 Has Enhanced Antibacterial Activity, Improved Stability, and a Longer Half-Life Compared to the Original Peptide” (Antibiotics, 2025).

Assays:
E. coli ATCC25922 = experiment: Membrane permeability assay (propidium iodide uptake, flow cytometry); format: cell-based; settings: melittin 4 μM, positive control, 30 min 37 °C
Experimental: The effect of C-LR18 on bacterial membrane permeability was measured using the propidium iodide (PI) uptake assay described in [22]. E. coli ATCC25922 in logarithmic growth phase were adjusted to 1 × 10^6 CFU/mL. C-LR18 was added with the final concentration of 4 μM. The mixtures were incubated for 30 min at 37 °C. […] After eliminating unbound dye by washing twice with PBS, the bacterial cells were detected using a flow cytometer (Ex = 535 nm/Em = 615 nm). The results were analyzed using FlowJo 6.2.1 and GraphPad Prism 5 software.

[1] = cited from earlier work
Excerpt: An in vivo toxicity test is an essential step in the safety evaluation of exogenous drugs. The purpose is to observe the systemic toxicity of drugs on animals, including whether there are adverse physiological reactions, pathological changes in organs and tissues of the whole body, and the mortality of animals. Therefore, before the treatment of C-LR18 on E. coli-infected mice, we tested the acute toxicity of C-LR18 in mice.

E. coli Y1 [2] = experiment: Bacterial load in liver and spleen of mice; format: in vivo; settings: polymyxin B 1 mg/kg, positive control, one mouse every 24 h
Experimental: One hour after the mice were intraperitoneally injected with 0.5 mL of E. coli Y1 suspension (10^9 CFU/mL), C-LR18 was injected into the mice at a dose of 7.5 mg/kg through the tail vein. The normal saline group was used as negative control, and the polymyxin B group (1 mg/kg) was used as positive control. After that, one mouse was taken every 24 h, sacrificed via cervical dislocation, and the liver and spleen were removed, weighed, and added to PBS buffer for grinding at 3000 r/min for 2 min. The abrasive solution was diluted with sterile PBS (1:10,000), and 0.1 mL diluent was evenly coated in solid MH medium and cultured at 37 °C overnight. Colony counting was performed on the samples, and the bacterial colonization amount in liver and spleen was calculated.

E. coli Y1 [3] = experiment: Therapeutic experiment, survival of E. coli-infected mice; format: in vivo, KM mice; settings: polymyxin B 5.0 mg/kg ip 1 h after ip E. coli Y1 challenge, 10 mice per group
Experimental: The mice (female, 18–21 g) were randomly divided into 6 groups, with PBS dilution as the control group. A total of 1–5 groups were injected intraperitoneally with 0.5 mL of E. coli solution containing […] CFU/mL, respectively. After inoculation, the mice were observed continuously for 5 days, and the mortality rate was recorded. The minimum dose (LD 100) at which all mice die within 5 days was used as the optimal dose for the bacterial attack in this experiment.
In order to further evaluate the therapeutic potential of antimicrobial peptide C-LR18, a mouse model infected with E. coli was constructed in this study. The Km mice (female, 18–21 g) were maintained at constant room temperature [(25 ± 2) °C] with free access to food and water for 48 h. […] A total of 0.5 mL of E. coli Y1 suspension (10^9 CFU/m L) was intraperitoneally injected into each group of mice. One hour after challenge, different doses of C-LR18 (2.5 mg/kg, 5 mg/kg, and 7.5 mg/kg) and polymyxin B (5 mg/kg) were intraperitoneally injected into mice. The group injected with the same dose of physiological water was the control group.

| Compound | PI fluorescence of treated cells (PI-A+) (E. coli ATCC25922) [%] | LD50 [1] [mg/kg] | bacterial colonization in liver and spleen (E. coli Y1 [2]) | survival rate of mice (E. coli Y1 [3]) [%] |
| --- | --- | --- | --- | --- |
| CC[C@H](C)[C@H](NC(=O)CN)C(=O)NCC(=O)N[C@@H](C)C(=O)N[C@H](C(=O)N[C@@H](CC(C)C)C(=O)N[C@@H](CCCCN)C(=O)N[C@H](C(=O)N[C@@H](CC(C)C)C(=O)N[C@H](C(=O)N[C@H](C(=O)NCC(=O)N[C@@H](CC(C)C)C(=O)N1CCC[C@H]1C(=O)N[C@@H](C)C(=O)N[C@@H](CC(C)C)C(=O)N[C@H](C(=O)N[C@@H](CO)C(=O)N[C@@H](Cc1c[nH]c2ccccc12)C(=O)N[C@H](C(=O)N[C@@H](CCCCN)C(=O)N[C@@H](CCCNC(=N)N)C(=O)N[C@@H](CCCCN)C(=O)N[C@@H](CCCNC(=N)N)C(=O)N[C@@H](CCC(N)=O)C(=O)N[C@@H](CCC(N)=O)C(N)=O)[C@@H](C)CC)[C@@H](C)CC)[C@@H](C)O)[C@@H](C)O)C(C)C)C(C)C [Melittin, reference compound] | 83.6 | 4.98 |  |  |
| polymyxin B [reference compound] |  | 6.52 | significantly less than that in the negative control group | 50 |
